Data reported in US7351744B2, “Naphthalene derivatives as termite repellents and toxicants” (Board of Supervisors of Louisiana State University and …, priority 2003, dated 2008).

Test system: C. formosanus workers
Test: whole plant or invertebrate
Assay type: in vivo, Coptotermes formosanus
Conditions: for Consumption (mg) day 8: wood slice
Procedure: Three-chambered transparent plastic containers as described in Example 4 were used to test the effectiveness of 2′-acetonaphthone as a barrier to prevent termites from reaching a food source. Each tested concentration of 2′-acetonaphthone was dissolved in 60 ml ethanol and mixed with 600 g of sand. For a control, 600 g of sand was mixed with 60 ml ethanol. The untreated and treated sand were placed in holding containers, and kept overnight at ambient conditions for solvent evaporation. In each container, sand was mixed with 60 ml DDH2O. Into the middle chamber, 110 g of either treated or untreated sand was gently added, packed, and leveled to clearly see tunnels. Six replicates were used for each concentration and control. Weighed balsa wood slices (0.159 cm×3.5 cm×6.0 cm, Ochroma lagopus Swartz) were placed in one of the two lateral chambers and wetted with 1 ml DDH2O. Into each container, 200 workers and 20 soldiers were released in the opposite lateral chamber from the wood slice. Termites were thus required to cross through the treated sand in the middle chamber to reach the food source. Containers were covered, and incubated in complete darkness at 27.4° C. and 70% RH. If necessary, 1 ml DDH2O was added to the sand and wood slice twice a week to maintain proper moisture. Three separate experiments were conducted using the same technique with different colonies.
In the first experiment, termites from Colony BS were used, and tested concentrations of 2′-acetonaphthone were 0.0, 16.67, 33.33, 50.0, 100.0, and 200.0 mg/kg sand. The number of dead workers was recorded daily to day 6. On day 6, the number of living workers in the releasing chamber was also recorded, and the bottoms of the three-chambered containers were scanned (ScanJet 4C, Hewlett-Packard, Palo Alto, Calif.). The images were printed in actual size, and the tunnel areas measured. After 8 days, the total number of living workers in each container was recorded; and the wood slices were gently cleaned using deionized water with a small brush. The slices were then oven dried at 60° C. for 3 h and reweighed. The difference in weight of the wood slices from the initial weighing was used to calculate food consumption.
The experiment was repeated a third time to further test for molting failures. The protocol was described as above. Five concentrations of 2′-acetonaphthone (4.15, 8.33, 16.67, 33.33, and 66.67 mg/kg sand) were evaluated using termites from colony WB. Tunnels were scanned, printed, and areas measured on days 2, 3, 4 and 7. Percent survival and food consumption were calculated on day 12 as previously described. To evaluate the effect of 2′-acetonaphthone treatments on worker survival, tunnel area and food consumption, an analysis of variance was conducted followed by a least significant difference procedure.

[1] = Coptotermes formosanus, 168 h, read-out: Mortality (%), day 7

In the case of `CC(=O)c1ccc2ccccc2c1` [2′-acetonaphthone], the “Food consumption (mg) day 12” value (4.16 mg kg^−1, colony E) is reported as 27.1 ± 2.3 b mg, the “Molting failure (%), day 7” value (4.16 mg kg^−1, colony E) is reported as 26.7 ± 6.0 a % and the “Survival (%) day 12” value (4.16 mg kg^−1, colony E) is reported as 34.2 ± 6.0 a %. For the same compound, the “Termite (%), workers counted in the releasing chambers on day 5” value (shortened to “Termite (%), workers counted”) (4.16 mg kg^−1, colony E) was 34.9 ± 2.8 b %, the “Tunnel area (cm^2), day 12” value (4.16 mg kg^−1, colony E) was 22.8 ± 4.4 a cm^2 and the “Food consumption (mg) day 12” value (4.16 mg/kg, colony WB) was 35.0 ± 13.8 a mg. The “Survival (%) day 12” value (4.16 mg/kg, colony WB) was 55.8 ± 7.3 a %, the “Tunnel area (cm^2), day 2” value (4.16 mg/kg, colony WB) was 3.4 ± 1.6 a cm^2 and the “Tunnel area (cm^2), day 3” value (4.16 mg/kg, colony WB) was 6.1 ± 2.6 ab cm^2. For the same compound, the “Tunnel area (cm^2), day 4” value (4.16 mg/kg, colony WB) was 8.0 ± 2.7 ab cm^2, the “Tunnel area (cm^2), day 7” value (4.16 mg/kg, colony WB) was 17.0 ± 4.5 a cm^2 and the “Food consumption (mg) day 12” value (8.33 mg kg^−1, colony E) was 0.0 ± 0.0 c mg. For the same compound, the “Molting failure (%), day 7” value (8.33 mg kg^−1, colony E) was 11.5 ± 1.9 b %, the “Survival (%) day 12” value (8.33 mg kg^−1, colony E) was 4.2 ± 1.9 b % and the “Termite (%), workers counted” value (8.33 mg kg^−1, colony E) was 77.9 ± 4.5 a %. For the same compound, the “Tunnel area (cm^2), day 12” value (8.33 mg kg^−1, colony E) was 2.8 ± 1.9 b cm^2, the “Food consumption (mg) day 12” value (8.33 mg/kg, colony WB) was 8.3 ± 3.1 b mg and the “Survival (%) day 12” value (8.33 mg/kg, colony WB) was 7.4 ± 3.3 b %. For the same compound, the “Tunnel area (cm^2), day 2” value (8.33 mg/kg, colony WB) was 2.3 ± 1.3 a cm^2, the “Tunnel area (cm^2), day 3” value (8.33 mg/kg, colony WB) was 3.1 ± 1.2 bc cm^2 and the “Tunnel area (cm^2), day 4” value (8.33 mg/kg, colony WB) was 3.5 ± 1.3 bc cm^2. For the same compound, the “Tunnel area (cm^2), day 7” value (8.33 mg/kg, colony WB) was 4.5 ± 1.8 b cm^2, the “Food consumption (mg) day 12” value (16.67 mg kg^−1, colony E) was 0.0 ± 0.0 c mg and the “Molting failure (%), day 7” value (16.67 mg kg^−1, colony E) was 13.9 ± 1.2 b %. The “Survival (%) day 12” value (16.67 mg kg^−1, colony E) was 0.0 ± 0.0 b %, the “Termite (%), workers counted” value (16.67 mg kg^−1, colony E) was 78.6 ± 4.0 a % and the “Tunnel area (cm^2), day 12” value (16.67 mg kg^−1, colony E) was 0.0 ± 0.0 b cm^2. For the same compound, the “Survival (%) day 8” value (16.67 mg/kg sand, colony BS) was 6.8 ± 6.7 b %, the “Termite (%) day 6, percent workers in the releasing chambers” value (“Termite (%) day 6, percent workers” below) (16.67 mg/kg sand, colony BS) was 39.8 ± 8.8 b % and the “Tunnel area (cm^2) day 6” value (16.67 mg/kg sand, colony BS) was 1.4 ± 0.9 b cm^2. For the same compound, the “Consumption (mg) day 8” value (16.67 mg/kg sand, colony BS) was 3.3 ± 3.3 b mg, the “Food consumption (mg) day 12” value (16.67 mg/kg, colony WB) was 3.3 ± 2.1 b mg and the “Survival (%) day 12” value (16.67 mg/kg, colony WB) was 0.0 ± 0.0 b %. The “Tunnel area (cm^2), day 2” value (16.67 mg/kg, colony WB) was 0.9 ± 0.4 a cm^2, the “Tunnel area (cm^2), day 3” value (16.67 mg/kg, colony WB) was 1.6 ± 1.0 bc cm^2 and the “Tunnel area (cm^2), day 4” value (16.67 mg/kg, colony WB) was 1.7 ± 1.0 c cm^2. The “Tunnel area (cm^2), day 7” value (16.67 mg/kg, colony WB) was 0.7 ± 0.5 b cm^2, the “Food consumption (mg) day 12” value (33.33 mg kg^−1, colony E) was 0.0 ± 0.0 c mg and the “Molting failure (%), day 7” value (33.33 mg kg^−1, colony E) was 15.9 ± 2.4 b %. For the same compound, the “Survival (%) day 12” value (33.33 mg kg^−1, colony E) was 0.0 ± 0.0 b %, the “Termite (%), workers counted” value (33.33 mg kg^−1, colony E) was 79.6 ± 2.2 a % and the “Tunnel area (cm^2), day 12” value (33.33 mg kg^−1, colony E) was 0.0 ± 0.0 b cm^2. For the same compound, the “Survival (%) day 8” value (33.33 mg/kg sand, colony BS) was 19.1 ± 9.1 b %, the “Termite (%) day 6, percent workers” value (33.33 mg/kg sand, colony BS) was 39.8 ± 10.2 b % and the “Tunnel area (cm^2) day 6” value (33.33 mg/kg sand, colony BS) was 5.5 ± 2.1 b cm^2. The “Consumption (mg) day 8” value (33.33 mg/kg sand, colony BS) was 11.7 ± 8.2 b mg, the “Food consumption (mg) day 12” value (33.33 mg/kg, colony WB) was 3.3 ± 2.1 b mg and the “Survival (%) day 12” value (33.33 mg/kg, colony WB) was 0.1 ± 0.1 b %. For the same compound, the “Tunnel area (cm^2), day 2” value (33.33 mg/kg, colony WB) was 0.0 ± 0.0 a cm^2, the “Tunnel area (cm^2), day 3” value (33.33 mg/kg, colony WB) was 0.0 ± 0.0 c cm^2 and the “Tunnel area (cm^2), day 4” value (33.33 mg/kg, colony WB) was 0.0 ± 0.0 c cm^2. The “Tunnel area (cm^2), day 7” value (33.33 mg/kg, colony WB) was 0.0 ± 0.0 b cm^2, the “Survival (%) day 8” value (50.0 mg/kg sand, colony BS) was 1.8 ± 1.8 b % and the “Termite (%) day 6, percent workers” value (50.0 mg/kg sand, colony BS) was 31.2 ± 2.8 b %. For the same compound, the “Tunnel area (cm^2) day 6” value (50.0 mg/kg sand, colony BS) was 2.5 ± 1.1 b cm^2, the “Consumption (mg) day 8” value (50.0 mg/kg sand, colony BS) was 0.0 ± 0.0 b mg and the “Food consumption (mg) day 12” value (66.67 mg/kg, colony WB) was 4.2 ± 3.3 b mg. For the same compound, the “Survival (%) day 12” value (66.67 mg/kg, colony WB) was 0.0 ± 0.0 b %, the “Tunnel area (cm^2), day 2” value (66.67 mg/kg, colony WB) was 0.4 ± 0.2 a cm^2 and the “Tunnel area (cm^2), day 3” value (66.67 mg/kg, colony WB) was 0.4 ± 0.2 c cm^2. The “Tunnel area (cm^2), day 4” value (66.67 mg/kg, colony WB) was 0.4 ± 0.2 c cm^2, the “Tunnel area (cm^2), day 7” value (66.67 mg/kg, colony WB) was 0.4 ± 0.2 b cm^2 and the “Survival (%) day 8” value (100.0 mg/kg sand, colony BS) was 0.0 ± 0.0 b %. The “Termite (%) day 6, percent workers” value (100.0 mg/kg sand, colony BS) was 79.8 ± 8.7 a %, the “Tunnel area (cm^2) day 6” value (100.0 mg/kg sand, colony BS) was 3.3 ± 1.6 b cm^2 and the “Consumption (mg) day 8” value (100.0 mg/kg sand, colony BS) was 0.0 ± 0.0 b mg. The “Survival (%) day 8” value (200.0 mg/kg sand, colony BS) was 1.3 ± 1.3 b %, the “Termite (%) day 6, percent workers” value (200.0 mg/kg sand, colony BS) was 81.8 ± 6.0 a % and the “Tunnel area (cm^2) day 6” value (200.0 mg/kg sand, colony BS) was 0.0 ± 0.0 b cm^2. The “Consumption (mg) day 8” value (200.0 mg/kg sand, colony BS) was 0.0 ± 0.0 b mg, the mortality at 4.16 mg/kg [1] was 35.9 ± 4.4% and the mortality at 8.33 mg/kg [1] was 71.8 ± 8.8%. It also gave a mortality at 16.67 mg/kg [1] of 99.5 ± 0.5%, a mortality at 33.33 mg/kg [1] of 100% and a Food consumption (all treatments 16.67 to 200 mg/kg, control 98.3 mg, day 8) of no more than 11.7 mg. The “concentration giving significant reduction in tunneling and feeding activity” value (as low as) was 8 mg/kg sand, the “concentration at which no food was consumed” value (colony BS, day 8) was no less than 50 mg/kg and the “concentration at which no termite reached the feeding chamber” value (colony E) was greater than 8.16 mg/kg. The “concentration forming an effective barrier (toxic, inhibits tunneling and feeding)” value (treated sand) was no less than 8.33 mg/kg.
